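Exposure lasted 48 hours, with cells grown in 96-well plates and compounds tested at five concentrations. Definition used: TGI = concentration required for complete inhibition of growth.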
Experiments:
Experiment in all cases: NCI tumour cell line growth inhibition, 48 h
UACC-257 melanoma = tested on: UACC-257 melanoma
SNB-19 CNS = tested on: SNB-19 CNS
K-562 leukemia = tested on: K-562 leukemia
NCI-H23 lung = tested on: NCI-H23 lung
LXFL 529 NSCLC = tested on: LXFL 529 NSCLC
UO-31 renal = tested on: UO-31 renal
HCC-2998 colon = tested on: HCC-2998 colon
M19-MEL melanoma = tested on: M19-MEL melanoma
SK-OV-3 ovarian = tested on: SK-OV-3 ovarian
TK-10 renal = tested on: TK-10 renal
SK-MEL-5 melanoma = tested on: SK-MEL-5 melanoma
NCI-H226 lung = tested on: NCI-H226 lung
RPMI-8226 leukemia = tested on: RPMI-8226 leukemia
SF-295 CNS = tested on: SF-295 CNS
M14 melanoma = tested on: M14 melanoma
SR leukemia = tested on: SR leukemia
OVCAR-3 ovarian = tested on: OVCAR-3 ovarian
EKVX NSCLC = tested on: EKVX NSCLC
OVCAR-4 ovarian = tested on: OVCAR-4 ovarian
SK-MEL-28 melanoma = tested on: SK-MEL-28 melanoma
HT29 colon = tested on: HT29 colon
MOLT-4 leukemia = tested on: MOLT-4 leukemia
KM20L2 colon = tested on: KM20L2 colon
KM12 colon = tested on: KM12 colon
DMS 114 small cell lung = tested on: DMS 114 small cell lung
XF 498 CNS = tested on: XF 498 CNS
HCT-116 colon = tested on: HCT-116 colon
RXF-631 renal = tested on: RXF-631 renal
786-0 renal = tested on: 786-0 renal
SW-620 colon = tested on: SW-620 colon
U251 CNS = tested on: U251 CNS
NCI-H522 lung = tested on: NCI-H522 lung
OVCAR-5 ovarian = tested on: OVCAR-5 ovarian
A549 NSCLC = tested on: A549 NSCLC
HCT-15 colon = tested on: HCT-15 colon
RXF 393 renal = tested on: RXF 393 renal
HOP-18 NSCLC = tested on: HOP-18 NSCLC
ACHN renal = tested on: ACHN renal
DLD-1 colon = tested on: DLD-1 colon
COLO 205 colon = tested on: COLO 205 colon
SNB-78 CNS = tested on: SNB-78 CNS
OVCAR-8 ovarian = tested on: OVCAR-8 ovarian
DMS 273 small cell lung = tested on: DMS 273 small cell lung
UACC-62 melanoma = tested on: UACC-62 melanoma
NCI-H460 lung = tested on: NCI-H460 lung
SN12C renal = tested on: SN12C renal
SNB-75 CNS = tested on: SNB-75 CNS
IGROV1 ovarian = tested on: IGROV1 ovarian
SK-MEL-2 melanoma = tested on: SK-MEL-2 melanoma
CAKI-1 renal = tested on: CAKI-1 renal
SF-539 CNS = tested on: SF-539 CNS
HOP-62 NSCLC = tested on: HOP-62 NSCLC
HOP-92 NSCLC = tested on: HOP-92 NSCLC
HL-60(TB) leukemia = tested on: HL-60(TB) leukemia
SF-268 CNS = tested on: SF-268 CNS
CCRF-CEM leukemia = tested on: CCRF-CEM leukemia
MALME-3M melanoma = tested on: MALME-3M melanoma
A498 renal = tested on: A498 renal
LOX IMVI melanoma = tested on: LOX IMVI melanoma

CC(C)(C)c1cc(C(O)(C(F)(F)F)C(F)(F)F)c2c(c1)C(C(F)(F)F)(C(F)(F)F)OC(C(C)(C)C)N2 (centres undefined)
TGI (UACC-257 melanoma): 9.48 µM | TGI (SNB-19 CNS): 19.3 µM | TGI (K-562 leukemia): 11 µM | TGI (NCI-H23 lung): 8.6 µM | TGI (LXFL 529 NSCLC): 11.7 µM | TGI (UO-31 renal): 19.3 µM | TGI (HCC-2998 colon): 15.7 µM | TGI (M19-MEL melanoma): 12.9 µM | TGI (SK-OV-3 ovarian): 5.58 µM | TGI (TK-10 renal): 11.9 µM | TGI (SK-MEL-5 melanoma): 3.6 µM | TGI (NCI-H226 lung): 10.2 µM | TGI (RPMI-8226 leukemia): 6.74 µM | TGI (SF-295 CNS): 8.04 µM | TGI (M14 melanoma): 18.2 µM | TGI (SR leukemia): 7.2 µM | TGI (OVCAR-3 ovarian): 9.43 µM | TGI (EKVX NSCLC): 17.1 µM | TGI (OVCAR-4 ovarian): 18 µM | TGI (SK-MEL-28 melanoma): 18.8 µM | TGI (HT29 colon): 9.37 µM | TGI (MOLT-4 leukemia): 5.34 µM | TGI (KM20L2 colon): 11.5 µM | TGI (KM12 colon): 14 µM | TGI (DMS 114 small cell lung): 8.95 µM | TGI (XF 498 CNS): 1.84 µM | TGI (HCT-116 colon): 12.8 µM | TGI (RXF-631 renal): 19 µM | TGI (786-0 renal): 11.9 µM | TGI (SW-620 colon): 13.8 µM | TGI (U251 CNS): 10.8 µM | TGI (NCI-H522 lung): 7.39 µM | TGI (OVCAR-5 ovarian): 23.3 µM | TGI (A549 NSCLC): 13.6 µM | TGI (HCT-15 colon): 11.7 µM | TGI (RXF 393 renal): 6.51 µM | TGI (HOP-18 NSCLC): 9.34 µM | TGI (ACHN renal): 10.2 µM | TGI (DLD-1 colon): 16.5 µM | TGI (COLO 205 colon): 13.5 µM | TGI (SNB-78 CNS): 14.2 µM | TGI (OVCAR-8 ovarian): 13.1 µM | TGI (DMS 273 small cell lung): 11.1 µM | TGI (UACC-62 melanoma): 14.4 µM | TGI (NCI-H460 lung): 9.01 µM | TGI (SN12C renal): 14.6 µM | TGI (SNB-75 CNS): 11.7 µM | TGI (IGROV1 ovarian): 18 µM | TGI (SK-MEL-2 melanoma): 10.3 µM | TGI (CAKI-1 renal): 8.45 µM | TGI (SF-539 CNS): 6.68 µM

O=C1CC2CCCC23CC2(CCN13)OCCO2 (centres undefined)
TGI (UACC-257 melanoma): > 100 µM | TGI (SNB-19 CNS): > 100 µM | TGI (K-562 leukemia): > 100 µM | TGI (NCI-H23 lung): > 100 µM | TGI (LXFL 529 NSCLC): > 100 µM | TGI (HOP-62 NSCLC): > 100 µM | TGI (UO-31 renal): > 100 µM | TGI (HCC-2998 colon): > 100 µM | TGI (M19-MEL melanoma): > 100 µM | TGI (HOP-92 NSCLC): > 100 µM | TGI (SK-OV-3 ovarian): > 100 µM | TGI (TK-10 renal): > 100 µM | TGI (SK-MEL-5 melanoma): > 100 µM | TGI (NCI-H226 lung): > 100 µM | TGI (RPMI-8226 leukemia): > 100 µM | TGI (SF-295 CNS): > 100 µM | TGI (M14 melanoma): > 100 µM | TGI (SR leukemia): > 100 µM | TGI (OVCAR-3 ovarian): > 100 µM | TGI (EKVX NSCLC): > 100 µM | TGI (OVCAR-4 ovarian): > 100 µM | TGI (SK-MEL-28 melanoma): > 100 µM | TGI (HT29 colon): > 100 µM | TGI (HL-60(TB) leukemia): > 100 µM | TGI (MOLT-4 leukemia): > 100 µM | TGI (KM20L2 colon): > 100 µM | TGI (KM12 colon): > 100 µM | TGI (DMS 114 small cell lung): > 100 µM | TGI (XF 498 CNS): > 100 µM | TGI (HCT-116 colon): > 100 µM | TGI (RXF-631 renal): > 100 µM | TGI (786-0 renal): > 100 µM | TGI (SW-620 colon): > 100 µM | TGI (U251 CNS): > 100 µM | TGI (NCI-H522 lung): > 100 µM | TGI (OVCAR-5 ovarian): > 100 µM | TGI (A549 NSCLC): > 100 µM | TGI (RXF 393 renal): > 100 µM | TGI (HOP-18 NSCLC): > 100 µM | TGI (ACHN renal): > 100 µM | TGI (DLD-1 colon): > 100 µM | TGI (COLO 205 colon): > 100 µM | TGI (SNB-78 CNS): > 100 µM | TGI (OVCAR-8 ovarian): > 100 µM | TGI (DMS 273 small cell lung): > 100 µM | TGI (SF-268 CNS): > 100 µM | TGI (UACC-62 melanoma): > 100 µM | TGI (NCI-H460 lung): > 100 µM | TGI (SN12C renal): > 100 µM | TGI (CCRF-CEM leukemia): > 100 µM | TGI (MALME-3M melanoma): > 100 µM | TGI (SNB-75 CNS): > 100 µM | TGI (IGROV1 ovarian): > 100 µM | TGI (A498 renal): > 100 µM | TGI (SK-MEL-2 melanoma): > 100 µM | TGI (CAKI-1 renal): > 100 µM | TGI (SF-539 CNS): > 100 µM | TGI (LOX IMVI melanoma): > 100 µM
